In patent publication US8889670B2, “Heterocyclic compounds which modulate the CB2 receptor” (Boehringer Ingelheim International GmbH, priority 2009, dated 2014) one finds EC50 data, which are given here for 23 molecules.

By EC50 is commonly meant the midpoint of the concentration-response curve.

The first experiment deals with T1, human CB2R (Homo sapiens, UniProt P34972).
T1 construct: host or cells: CHO cells
T1 sequence (P34972 whole entry): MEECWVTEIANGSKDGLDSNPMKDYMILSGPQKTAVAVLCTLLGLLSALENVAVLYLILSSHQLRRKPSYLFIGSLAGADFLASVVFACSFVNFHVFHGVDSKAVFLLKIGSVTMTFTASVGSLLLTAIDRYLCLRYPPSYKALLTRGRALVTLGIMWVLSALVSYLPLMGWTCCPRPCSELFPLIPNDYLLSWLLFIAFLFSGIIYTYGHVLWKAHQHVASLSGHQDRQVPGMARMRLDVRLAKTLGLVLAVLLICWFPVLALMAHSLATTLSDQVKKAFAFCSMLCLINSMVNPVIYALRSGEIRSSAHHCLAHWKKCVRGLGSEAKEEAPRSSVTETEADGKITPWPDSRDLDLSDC
The experiment in a line: CB2R mediated modulation of cAMP synthesis (forskolin-stimulated cAMP, CHO cells expressing human CB2R). The format is cell-based.
Conditions: not given
The method, then:
B. CB2R Mediated Modulation of cAMP Synthesis:
Compounds of the invention were evaluated for their CB2 agonist or inverse agonistic activity in accordance with the following experimental method.
CHO cells expressing human CB2R (Euroscreen) were plated at a density of 5000 cells per well in 384 well plates and incubated overnight at 37° C. After removing the media, the cells were treated with test compounds diluted in stimulation buffer containing 1 mM IBMX, 0.25% BSA and 10 uM Forskolin. The assay was incubated for 30 minutes at 37° C. Cells were lysed and the cAMP concentration was measured using DiscoverX-XS cAMP kit, following the manufacturer's protocol. In this setting, agonists will decrease forskolin induced production of cAMP while inverse agonists will further increase forskolin induced production of cAMP. EC50 of agonists were calculated as follows. The maximal amount of cAMP produced by forskolin compared to the level of cAMP inhibited by 1 uM CP55940 is defined as 100%. […] Data was analyzed using a four-parameter logistic model. (Model 205 of XLfit 4.0).
The molecule `CC(C)(C)c1nsc(NC(=O)[C@@H]2CCCCN2CC2CCOCC2)n1` [(S)-1-(Tetrahydro-pyran-4-ylmethyl)-piperidine-2-carboxylic acid (3-tert-butyl-1,2,4-thiadiazol-5-yl)-amide] gave an EC50 of 12 nM.

With `CC(C)(C)c1cc(NC(=O)[C@H]2CCCCN2C(=O)C2CCC(F)(F)CC2)no1` [(R)-1-(4,4-Difluoro-cyclohexanecarbonyl)-piperidine-2-carboxylic acid (5-tert-butyl-isoxazol-3-yl)-amide], it took 64 nM to reach a half-maximal effect (EC50).

For the molecule `CC(C)(C)c1cc(NC(=O)C2CCCCN2C(=O)C2CCC(F)(F)CC2)no1` (centres unmarked) [1-(4,4-Difluoro-cyclohexanecarbonyl)-piperidine-2-carboxylic acid (5-tert-butyl-isoxazol-3-yl)-amide], the response was half-maximal at 11 nM (EC50).

`O=C(Nc1nc2cc(Cl)ccc2[nH]1)[C@@H]1CCCCN1C(=O)N1CCS(=O)(=O)CC1` [(S)-1-(1,1-Dioxo-1λ^6-thiomorpholine-4-carbonyl)-piperidine-2-carboxylic acid (5-chloro-1H-benzimidazol-2-yl)-amide] showed an EC50 of 77 nM.

On to `CC(C)(C)c1cc(NC(=O)[C@@H]2CCCCCN2C2CCOCC2)no1` [(S)-1-(Tetrahydro-pyran-4-yl)-azepane-2-carboxylic acid (5-tert-butyl-isoxazol-3-yl)-amide], for which the midpoint of the response, the EC50, lay at 0.18 nM.

Regarding `CC(C)(C)c1cc(NC(=O)C2CCCN(S(=O)(=O)c3ccc(Cl)cc3)C2)no1` (centres unmarked) [1-(4-Chloro-benzenesulfonyl)-piperidine-3-carboxylic acid (5-tert-butyl-isoxazol-3-yl)-amide], the EC50 was determined as 12 nM.

For `CC(C)(C)c1cc(NC(=O)[C@@H]2CCCCN2C(=O)CN2CCC(F)(F)C2)no1` [(S)-1-[2-(3,3-Difluoro-pyrrolidin-1-yl)-acetyl]-piperidine-2-carboxylic acid (5-tert-butyl-isoxazol-3-yl)-amide], the EC50 turned out to be 2.9 nM.

The molecule `CC(C)(C)c1cc(NC(=O)C2CCCN(C(=O)c3ccc(C(F)(F)F)cc3)C2)no1` (centres unmarked) [1-(4-Trifluoromethyl-benzoyl)-piperidine-3-carboxylic acid (5-tert-butyl-isoxazol-3-yl)-amide] returned an EC50 of 16 nM.

Consider `CC(C)(C)c1coc(NC(=O)[C@@H]2CCCCN2CC2CCOCC2)n1` [(S)-1-(Tetrahydro-pyran-4-ylmethyl)-piperidine-2-carboxylic acid (4-tert-butyl-oxazol-2-yl)-amide], for which the EC50 came to 2.4 nM.

`CC(C)(C)c1cc(NC(=O)[C@@H]2CCCCN2C(=O)C2CCC(F)(F)CC2)no1` [(S)-1-(4,4-Difluoro-cyclohexanecarbonyl)-piperidine-2-carboxylic acid (5-tert-butyl-isoxazol-3-yl)-amide]: the EC50 was found to be 4.6 nM.

`CC(C)(C)c1cc(NC(=O)C2CN(C(=O)c3ccc(C(F)(F)F)cc3)CCO2)no1` (centres unmarked) [4-(4-Trifluoromethyl-benzoyl)-morpholine-2-carboxylic acid (5-tert-butyl-isoxazol-3-yl)-amide] showed an EC50 of 85 nM.

The same experiment, now with this note: agonist EC50, inhibition of forskolin-stimulated cAMP synthesis; CHO cells expressing human CB2R; mean; read-out: CB2 CAMP @ EC50 nM (mean).
`O=C(Nc1nc2ccc(Cl)cc2s1)[C@@H]1CCCCN1CC1CCOCC1` [(S)-1-(Tetrahydro-pyran-4-ylmethyl)-piperidine-2-carboxylic acid (6-chloro-benzothiazol-2-yl)-amide]: the EC50 is 131 nM.

For the molecule `CCn1nc(NC(=O)[C@@H]2CCCCN2CC2CCOCC2)nc1-c1ccccc1` [(S)-1-(Tetrahydro-pyran-4-ylmethyl)-piperidine-2-carboxylic acid (1-ethyl-5-phenyl-1H-1,2,4-triazol-3-yl)-amide], the EC50 was 8.6 nM.

Regarding `O=C(Nc1nc2cc(Cl)ccc2s1)[C@@H]1CCCCN1C1CCOCC1` [(S)-1-(Tetrahydro-pyran-4-yl)-piperidine-2-carboxylic acid (5-chloro-benzothiazol-2-yl)-amide], the EC50 was 206 nM.

Turning to `CCc1sc(NC(=O)[C@@H]2CCCCN2C(=O)N2CCS(=O)(=O)CC2)nc1-c1ccccc1` [(S)-1-(1,1-Dioxo-1λ^6-thiomorpholine-4-carbonyl)-piperidine-2-carboxylic acid (5-ethyl-4-phenyl-thiazol-2-yl)-amide], the EC50 was found to be 5.2 nM.

Consider `O=C(Nc1nc(C2CCCCC2)cs1)[C@@H]1CCCCN1C1CCOCC1` [(S)-1-(Tetrahydro-pyran-4-yl)-piperidine-2-carboxylic acid (4-cyclohexyl-thiazol-2-yl)-amide], for which the EC50 came to 65 nM.

As to `O=C(Nc1nc(C2CCCCC2)cs1)[C@@H]1CCCCN1CC1CCOCC1` [(S)-1-(Tetrahydro-pyran-4-ylmethyl)-piperidine-2-carboxylic acid (4-cyclohexyl-thiazol-2-yl)-amide], the EC50 is 9 nM.

Take `CC(C)(C)c1nnc(NC(=O)[C@@H]2CCCCN2C2CCC2)s1` [(S)-1-Cyclobutyl-piperidine-2-carboxylic acid (5-tert-butyl-1,3,4-thiadiazol-2-yl)-amide]: the half-maximal effective concentration (EC50) came out at 140 nM.

For the molecule `CC(C)c1nsc(NC(=O)[C@@H]2CCCCN2CC2CCOCC2)n1` [(S)-1-(Tetrahydro-pyran-4-ylmethyl)-piperidine-2-carboxylic acid (3-isopropyl-1,2,4-thiadiazol-5-yl)-amide], the concentration giving a half-maximal response (EC50) turned out to be 208 nM.

Consider `O=C(Nc1nc(-c2ccccc2)ns1)[C@@H]1CCCCN1CC1CCOCC1` [(S)-1-(Tetrahydro-pyran-4-ylmethyl)-piperidine-2-carboxylic acid (3-phenyl-1,2,4-thiadiazol-5-yl)-amide], for which the EC50 was determined as 1.2 nM.

On to `CCC(C)c1cc(NC(=O)[C@@H]2CCCCN2C(=O)N2CCS(=O)(=O)CC2)on1` (stereo partly drawn) [(S)-1-(1,1-Dioxo-1λ^6-thiomorpholine-4-carbonyl)-piperidine-2-carboxylic acid (3-sec-butyl-isoxazol-5-yl)-amide], for which the concentration giving a half-maximal response (EC50) was 105 nM.

With `O=C(Nc1nc(-c2ccc(F)c(F)c2)cs1)[C@@H]1CCCCN1C(=O)N1CCS(=O)(=O)CC1` [(S)-1-(1,1-Dioxo-1λ^6-thiomorpholine-4-carbonyl)-piperidine-2-carboxylic acid [4-(3,4-difluoro-phenyl)-thiazol-2-yl]-amide], the EC50 is 26 nM.

Consider `CC(C)(C)c1nnc(NC(=O)[C@@H]2CCCCN2CC2CCOCC2)s1` [(S)-1-(Tetrahydro-pyran-4-ylmethyl)-piperidine-2-carboxylic acid (5-tert-butyl-1,3,4-thiadiazol-2-yl)-amide], for which the EC50 amounted to 1.6 nM.
